Reference: patent US20110028447A1, “INDAZOLE DERIVATIVES” (Pfizer Inc., priority 2008, published 2011)

Molecular target: human CB1 receptor (Homo sapiens, UniProt P21554)
Test: Human CB1 receptor binding, [3H] CP-55,940 displacement on HEK cell membranes
Set-up: expressed in transfected cells; host or cells: HEK cells, doxycycline-induced; membrane preparation
Details: CB1 Ki
Description: The Human CB1 receptor binding affinity and other biological activities of the compounds of this invention are determined by the following procedures. Membrane preparation: Human Embryonic Kidney (HEK) Cells expressing the human CB1 receptor under transcriptional regulation of a tetracycline inducible promoter were grown in Dulbecco's Modified Essential Medium with sodium pyruvate (Invitrogen, Carlsbad, Calif.) containing 10% tetracycline free fetal bovine serum (Clonetech, Mountain View, Calif.) 100 μg/ml hygromycin (Calbiochem, San Diego, Calif.), 5 μg/ml blasticidin (Invitrogen). CB1 receptor expression was induced by addition of 1 μg/ml doxycycline (Calbiochem) and incubation for an additional 24 hours. Cells were released from flasks using Cell Dissociation Buffer (Invitrogen). Cells were pelleted by centrifugation at 500×G for 5 minutes. Membranes were prepared by resuspending cells in ice cold TEE Buffer (25 mM Tris pH 7.4, 5 mM EDTA, 5 mM EGTA, Complete Protease Inhibitor (Roche, Basel, Switzerland)). Cells were lysed with 12 strokes of a dounce homogenizer. Unlysed cells were pelleted by centrifugation at 500×G for 5 minutes. Membranes were pelleted by centrifugation at 25,000×G for 30 minutes. Membranes were resuspended in TEE, dounced 12 strokes, and pelleted a second time at 25,000×G for 30 minutes. Membrane pellet was resuspended in 50 mM Tris pH 7.4, 100 mM NaCl, 3 mM MgCl2, 0.2 mM EGTA, Complete Protease Inhibitor (Roche). Protein concentration was determined using the Micro-BCA Protein Assay Kit (Pierce, Rockford, Ill.) using BSA as a standard. Membranes were quick frozen and stored at −80 degrees Celsius until use.
Binding experiments: 50 μl of test compound was incubated with 50 μl of [^3H] CP-55,940 (Perkin Elmer, Boston, Mass.) (final concentration=[…]) and 150 μl of membrane homogenate (1 μg/well) in polypropylene 96-well plates (Corning, Acton, Mass.). Final reaction conditions were 50 mM Tris pH 7.4, 100 mM NaCl, 3 mM MgCl2, 0.2 mM EGTA, 0.04% BSA. Nonspecific binding was determined by incubation with 50 μM WIN-55, 212-2 (Tocris, Ellisville, Mo.). After incubation at room temperature for 60 minutes reactions were harvested by vacuum filtration through Unifilter GF/B-96 filters (Perkin Elmer) that had been presoaked in assay buffer containing 0.5% BSA (Sigma, St. Louis, Mo.) using a FilterMate Plate Harvester (Perkin Elmer). Filters were rinsed 4 times with 50 mM Tris pH 7.4, 0.025% Tween-20 and dried at 50 degrees Celsius for at least 30 minutes. 40 μl of Microscint-20 (Perkin Elmer) was added per well, and plates were counted using a Top-Count Microplate Scintillation Counter (Perkin Elmer). Binding data were analyzed and EC50 and K, values calculated using Graph Pad Prism 4.0 Software.

Sequence of human CB1 receptor (P21554 whole entry): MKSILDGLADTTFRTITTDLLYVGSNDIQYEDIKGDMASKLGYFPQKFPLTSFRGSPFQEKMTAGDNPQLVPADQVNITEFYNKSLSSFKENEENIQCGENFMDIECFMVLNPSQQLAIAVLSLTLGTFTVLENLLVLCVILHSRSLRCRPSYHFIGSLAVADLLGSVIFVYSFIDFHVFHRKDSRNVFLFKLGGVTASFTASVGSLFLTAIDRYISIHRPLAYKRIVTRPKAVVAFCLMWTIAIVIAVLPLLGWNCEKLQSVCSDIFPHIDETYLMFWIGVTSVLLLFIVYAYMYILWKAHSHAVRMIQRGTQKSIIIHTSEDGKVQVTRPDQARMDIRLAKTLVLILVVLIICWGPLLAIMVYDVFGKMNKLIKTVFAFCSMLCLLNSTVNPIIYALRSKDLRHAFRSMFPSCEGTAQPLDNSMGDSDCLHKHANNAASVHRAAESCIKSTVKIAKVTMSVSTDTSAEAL

Row | SMILES | Ki [nM]
1 | CC(C)(C)[C@H](NC(=O)c1nn(Cc2ccc(C#N)cc2)c2cc(F)ccc12)C(=O)NC[C@H](O)CO [Example 298] | 182
2 | CC(C)(C)[C@H](NC(=O)c1nn(Cc2ccc(C#N)cc2)c2cc(F)ccc12)C(=O)NCC(N)=O [Example 301] | 70.3
3 | CN1CCN=C1CNC(=O)[C@@H](NC(=O)c1nn(Cc2ccc(F)cc2)c2ccccc12)C(C)(C)C [Example 304] | 152
4 | CC(C)(C)[C@H](NC(=O)c1nn(Cc2ccc(F)cc2)c2ccccc12)C(=O)NC[C@@H](O)C(N)=O [Example 314] | 130
5 | CC(C)(C)[C@H](NC(=O)c1nn(Cc2ccc(C#N)cc2)c2ccccc12)C(=O)NCC1CNC(=O)O1 (stereo partly drawn) [Example 316] | 243
6 | CC(C)(C)[C@H](NC(=O)c1nn(Cc2ccc(F)cc2)c2ccccc12)C(=O)N1CCC[C@@H]1C(N)=O [Example 319] | 45.8
7 | CC(C)(C)[C@H](NC(=O)c1nn(Cc2ccc(C#N)cc2)c2ccccc12)C(=O)N1CC(C(N)=O)C1 [Example 351] | 24.3
8 | CC(C)(C)[C@H](NC(=O)c1nn(Cc2ccc(C#N)cc2)c2cc(F)ccc12)C(=O)N1CC(C(N)=O)C1 [Example 353] | 72.8
9 | CC(C)(C)[C@H](NC(=O)c1nn(Cc2ccc(C#N)cc2)c2c(F)cccc12)C(=O)N[C@H]1C[C@H](O)C1 [Example 355] | 52.9
10 | CC(C)(C)[C@H](NC(=O)c1nn(Cc2ccc(C#N)cc2)c2cc(F)ccc12)C(=O)N[C@H]1C[C@H](O)C1 [Example 356] | 32.6
11 | CC(C)(C)[C@H](NC(=O)c1nn(Cc2ccc(C#N)cc2F)c2c(F)c(F)ccc12)C(=O)NCC(N)=O [Example 359] | 47.2
12 | CC(C)(C)[C@H](NC(=O)c1nn(Cc2ccc(C#N)cc2F)c2c(F)c(F)ccc12)C(=O)NC[C@@H](O)CO [Example 360] | 73.5
13 | CC(C)(C)[C@H](NC(=O)c1nn(Cc2ccc(C#N)cc2F)c2c(F)c(F)ccc12)C(=O)NC[C@H](O)CO [Example 361] | 41.6
14 | CC(C)(C)[C@H](NC(=O)c1nn(Cc2ccc(C#N)cc2F)c2c(F)c(F)ccc12)C(=O)NCCS(C)(=O)=O [Example 362] | 125
15 | CC(C)(C)[C@H](NC(=O)c1nn(Cc2ccc(C#N)cc2F)c2c(F)c(F)ccc12)C(=O)NCCS(N)(=O)=O [Example 363] | 57.8
16 | CC(C)(C)[C@H](NC(=O)c1nn(Cc2ccc(C#N)cc2F)c2c(F)cccc12)C(=O)NC[C@@H](O)CO [Example 366] | 241
17 | CC(C)(C)[C@H](NC(=O)c1nn(Cc2ccc(C#N)cc2F)c2c(F)cccc12)C(=O)NC[C@H](O)CO [Example 367] | 41.4
18 | CC(C)(C)[C@H](NC(=O)c1nn(Cc2ccc(C#N)cc2F)c2c(F)cccc12)C(=O)NCC(N)=O [Example 369] | 28.1
19 | CC(C)(C)[C@H](NC(=O)c1nn(Cc2ccc(C#N)cc2F)c2c(F)cccc12)C(=O)NCCS(C)(=O)=O [Example 370] | 132

Row | SMILES | Ki [nM]
20 | CC(C)(C)[C@H](NC(=O)c1nn(Cc2ccc(C#N)cc2F)c2c(F)cccc12)C(=O)NCCS(N)(=O)=O [Example 371] | 54.8
21 | Cc1nnc(CNC(=O)[C@@H](NC(=O)c2nn(Cc3ccc(C#N)cc3F)c3c(F)cccc23)C(C)(C)C)o1 [Example 372] | 22.6
22 | CC(C)(C)[C@@H](NC(=O)c1nn(Cc2ccc(C#N)cc2)c2ccccc12)C(N)=O [Example 383] | > 400
23 | CC(C)(C)[C@H](NC(=O)c1nn(Cc2ccc(C#N)cc2)c2ccccc12)C(=O)NC[C@H](O)CO [Example 384] | 286
24 | COc1cc(C#N)ccc1Cn1nc(C(=O)N[C@H](C(N)=O)C(C)(C)C)c2ccccc21 [Example 385] | 166
25 | COc1cc(C#N)ccc1Cn1nc(C(=O)N[C@H](C(=O)NCCO)C(C)(C)C)c2ccccc21 [Example 386] | 209
26 | COc1cc(C#N)ccc1Cn1nc(C(=O)N[C@H](C(=O)NC[C@H](O)CO)C(C)(C)C)c2ccccc21 [Example 387] | > 400
27 | COc1cc(C#N)ccc1Cn1nc(C(=O)N[C@H](C(=O)NCC(N)=O)C(C)(C)C)c2ccccc21 [Example 388] | > 400
28 | COc1cc(C#N)ccc1Cn1nc(C(=O)N[C@H](C(=O)NC[C@@H](O)CO)C(C)(C)C)c2ccccc21 [Example 389] | > 400
29 | COc1cc(C#N)ccc1Cn1nc(C(=O)N[C@H](C(=O)NCCS(N)(=O)=O)C(C)(C)C)c2ccccc21 [Example 390] | > 400
30 | COc1cc(C#N)ccc1Cn1nc(C(=O)N[C@H](C(=O)NC(CO)CO)C(C)(C)C)c2ccccc21 [Example 391] | > 400
31 | COc1cc(C#N)ccc1Cn1nc(C(=O)N[C@H](C(=O)NCCS(C)(=O)=O)C(C)(C)C)c2ccccc21 [Example 392] | > 400
32 | COc1cc(C#N)ccc1Cn1nc(C(=O)N[C@H](C(=O)NC2CC2)C(C)(C)C)c2ccccc21 [Example 393] | > 400
33 | COc1cc(C#N)ccc1Cn1nc(C(=O)N[C@@H](C(N)=O)C(C)(C)C)c2ccccc21 [Example 394] | > 400
34 | CC(C)(C)[C@H](NC(=O)c1nn(Cc2ccc(C#N)cc2)c2ccccc12)C(=O)N[C@H]1C[C@@H](C(N)=O)C1 [Example 396] | 239
35 | CC(C)(C)[C@H](NC(=O)c1nn(Cc2ccc(C#N)cc2F)c2ccccc12)C(=O)N[C@H]1C[C@@H](C(N)=O)C1 [Example 397] | 243
36 | COc1cc(C#N)ccc1Cn1nc(C(=O)N[C@H](C(=O)N[C@H]2C[C@@H](C(N)=O)C2)C(C)(C)C)c2ccccc21 [Example 399] | > 400
37 | CC(C)(C)[C@H](NC(=O)c1nn(Cc2ccc(C#N)cc2)c2ccccc12)C(=O)NCC1CCC(=O)N1 (stereo partly drawn) [Example 401] | > 400
38 | CC(C)(C)[C@H](NC(=O)c1nn(Cc2ccc(C#N)cc2)c2c(F)cccc12)C(=O)NCC1CCC(=O)N1 (stereo partly drawn) [Example 402] | 277

Same assay, conditions: read-out: CB1 Ki

Row | SMILES | Ki [nM]
39 | COc1cc(CNC(=O)[C@@H](NC(=O)c2nn(Cc3ccc(C#N)cc3)c3ccccc23)C(C)(C)C)on1 [Example 311] | 147
40 | COc1cc(CNC(=O)[C@@H](NC(=O)c2nn(Cc3ccc(C#N)cc3)c3c(F)cccc23)C(C)(C)C)on1 [Example 312] | 178
41 | COc1cc(CNC(=O)[C@@H](NC(=O)c2nn(Cc3ccc(C#N)cc3)c3cc(F)ccc23)C(C)(C)C)on1 [Example 313] | 273
42 | CCNC(=O)OC1CCCN(C(=O)[C@@H](NC(=O)c2nn(Cc3ccc(F)cc3)c3ccccc23)C(C)(C)C)C1 (stereo partly drawn) [Example 317] | 31.1
43 | CC(C)NC(=O)OC1CCCN(C(=O)[C@@H](NC(=O)c2nn(Cc3ccc(F)cc3)c3ccccc23)C(C)(C)C)C1 (stereo partly drawn) [Example 318] | 68.7
44 | CCOC(=O)C1(F)CCN(C(=O)[C@@H](NC(=O)c2nn(Cc3ccc(F)cc3)c3ccccc23)C(C)(C)C)CC1 [Example 342] | 20.5
45 | CC(C)(C)[C@H](NC(=O)c1nn(Cc2ccc(F)cc2)c2ccccc12)C(=O)N1CCC(F)(C(N)=O)CC1 [Example 343] | 216
46 | CC(C)(C)[C@H](NC(=O)c1nn(Cc2ccc(F)cc2)c2ccccc12)C(=O)NCC1CN(C(N)=O)C1 [Example 347] | 24.4
47 | Cc1cc(O)nc(CNC(=O)[C@@H](NC(=O)c2nn(Cc3ccc(C#N)cc3)c3c(F)cccc23)C(C)(C)C)n1 [Example 349] | 101
48 | Cc1cc(O)nc(CNC(=O)[C@@H](NC(=O)c2nn(Cc3ccc(C#N)cc3)c3ccccc23)C(C)(C)C)n1 [Example 350] | 229
49 | Cc1nnc(CNC(=O)[C@@H](NC(=O)c2nn(Cc3ccc(C#N)cc3F)c3c(F)c(F)ccc23)C(C)(C)C)o1 [Example 364] | 20.9
50 | CC(C)(C)[C@H](NC(=O)c1nn(Cc2ccc(F)cc2)c2ccccc12)C(=O)NCC(=O)NC(CO)CO [Example 377] | 22.5
51 | CC(C)(C)[C@H](NC(=O)c1nn(Cc2ccc(F)cc2)c2ccccc12)C(=O)NCC(=O)N1C[C@@H](O)[C@H](O)C1 [Example 378] | 158
52 | CC(C)(C)[C@H](NC(=O)c1nn(Cc2ccc(F)cc2)c2ccccc12)C(=O)NCC(=O)N(CCO)CCO [Example 379] | > 400
53 | CCOC(=O)[C@H]1C[C@@H](NC(=O)[C@@H](NC(=O)c2nn(Cc3ccc(C#N)cc3)c3ccccc23)C(C)(C)C)C1 [Example 380] | > 400
54 | CCOC(=O)[C@H]1C[C@@H](NC(=O)[C@@H](NC(=O)c2nn(Cc3ccc(C#N)cc3F)c3ccccc23)C(C)(C)C)C1 [Example 382] | 238
